According to ChEMBL document CHEMBL1156115, “The design of potent and selective inhibitors of DPP-4: optimization of ADME properties by amide replacements” (Bioorg Med Chem Lett, 2009):
Calls of active or inactive are those of the source. No cut-off for these calls is given here.

Key:
Dipeptidyl peptidase 2 = Dipeptidyl peptidase 2 (Homo sapiens, UniProt Q9UHL4); test: Inhibition of DPP7
[1] = Distribution coefficient, log D of the compound; format: physicochemical; settings: octanol/water
Caco-2 [2] = test: (§1) Apparent permeability from apical to basolateral side of human Caco-2 cells; format: ADME, cell-based
Caco-2 [3] = test: (§2) Apparent permeability from basolateral to apical side of human Caco-2 cells; format: ADME, cell-based
[4] = Half life in human liver microsomes at 3 uM; format: ADME, Microsome
[5] = Half life in rat liver microsomes at 3 uM; format: ADME, Microsome
[6] = as §1; format: ADME, cell-based
[7] = as §2; format: ADME, cell-based
Prolyl endopeptidase = target: T1, Prolyl endopeptidase (Homo sapiens, UniProt P48147); test: Inhibition of human POP expressed in Escherichia coli after 30 mins by continuous fluorescent assay
T1 sequence (P48147 whole entry): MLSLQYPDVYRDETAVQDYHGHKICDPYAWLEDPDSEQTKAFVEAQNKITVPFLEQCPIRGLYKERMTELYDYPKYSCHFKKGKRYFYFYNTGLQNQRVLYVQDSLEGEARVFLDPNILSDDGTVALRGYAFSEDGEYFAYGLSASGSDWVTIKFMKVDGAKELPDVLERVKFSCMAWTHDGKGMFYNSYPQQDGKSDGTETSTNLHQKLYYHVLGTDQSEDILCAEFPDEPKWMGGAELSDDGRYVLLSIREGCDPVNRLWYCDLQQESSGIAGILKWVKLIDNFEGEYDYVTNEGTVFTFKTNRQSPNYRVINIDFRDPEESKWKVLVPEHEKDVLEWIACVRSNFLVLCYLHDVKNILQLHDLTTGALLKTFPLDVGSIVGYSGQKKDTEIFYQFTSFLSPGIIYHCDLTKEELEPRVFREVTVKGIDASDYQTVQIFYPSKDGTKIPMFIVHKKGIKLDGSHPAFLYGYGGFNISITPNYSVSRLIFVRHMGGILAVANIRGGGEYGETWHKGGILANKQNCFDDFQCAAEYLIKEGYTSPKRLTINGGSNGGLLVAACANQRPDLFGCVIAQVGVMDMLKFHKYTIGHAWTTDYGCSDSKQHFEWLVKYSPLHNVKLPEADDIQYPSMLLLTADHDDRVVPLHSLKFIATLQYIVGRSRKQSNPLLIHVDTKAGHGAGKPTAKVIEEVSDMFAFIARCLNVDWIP

[8] = Half life in Wistar rat at 1 mg/kg, iv or 3 mg/kg, po; format: ADME, organism-based; settings: in vivo
[9] = Clearance in Wistar rat at 1 mg/kg, iv or 3 mg/kg, po; format: ADME, organism-based; settings: in vivo
[10] = Apparent volume of distribution in Wistar rat at 1 mg/kg, iv or 3 mg/kg, po; format: ADME, organism-based; settings: in vivo, read-out: Vz
[11] = Oral bioavailability in Wistar rat at 3 mg/kg; format: ADME, organism-based; settings: in vivo
Mus musculus = test: Antihyperglycemic activity in obese mouse diabetic model assessed as reduction in peak glucose excursion at 3 mg/kg, po administered 30 mins before glucose challenge by oral glucose tolerance test; format: functional, organism-based; set-up: dose 3 mg/kg
[12] = target: Dipeptidyl peptidase 4 (Mus musculus) (UniProt P28843); test: Inhibition of DPP4 in mouse plasma up to 60 mins; format: cell-free
Dipeptidyl peptidase 4 (Mus musculus), sequence (P28843 whole entry, looked up): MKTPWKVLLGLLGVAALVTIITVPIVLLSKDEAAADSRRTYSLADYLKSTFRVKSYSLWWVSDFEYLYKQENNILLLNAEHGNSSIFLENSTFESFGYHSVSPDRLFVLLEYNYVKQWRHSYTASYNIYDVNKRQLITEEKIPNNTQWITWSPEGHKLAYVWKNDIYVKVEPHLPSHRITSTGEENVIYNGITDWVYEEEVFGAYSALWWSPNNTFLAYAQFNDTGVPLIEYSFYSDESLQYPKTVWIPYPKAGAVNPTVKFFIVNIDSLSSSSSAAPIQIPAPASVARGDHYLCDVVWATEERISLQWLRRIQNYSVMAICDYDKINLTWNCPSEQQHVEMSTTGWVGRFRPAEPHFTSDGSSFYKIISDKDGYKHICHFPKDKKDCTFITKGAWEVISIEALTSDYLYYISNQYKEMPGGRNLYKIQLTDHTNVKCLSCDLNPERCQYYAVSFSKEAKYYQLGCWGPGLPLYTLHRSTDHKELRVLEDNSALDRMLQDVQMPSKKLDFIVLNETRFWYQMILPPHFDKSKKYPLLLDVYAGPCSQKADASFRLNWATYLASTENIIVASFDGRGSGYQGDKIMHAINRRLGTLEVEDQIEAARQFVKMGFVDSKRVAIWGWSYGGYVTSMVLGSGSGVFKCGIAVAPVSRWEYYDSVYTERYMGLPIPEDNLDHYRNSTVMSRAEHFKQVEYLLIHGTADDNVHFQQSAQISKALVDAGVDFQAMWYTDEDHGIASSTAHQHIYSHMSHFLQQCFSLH

[13] = target: Dipeptidyl peptidase 4 (Mus musculus) (UniProt P28843); test: Inhibition of DPP4 in mouse plasma up to 180 mins; format: cell-free

| SMILES | IC50 (Dipeptidyl peptidase 2) | logD [1] | half-life at 3 µM [4] | half-life at 3 µM [5] | IC50 (Prolyl endopeptidase) | further results |
| --- | --- | --- | --- | --- | --- | --- |
| N[C@@H](CC(=O)N1CCC[C@H]1c1noc(C2(F)CC2)n1)Cc1cc(F)c(F)cc1F | 14 µM |  |  |  |  |  |
| CS(=O)(=O)N1CC(c2noc([C@@H]3CCCN3C(=O)C[C@H](N)Cc3cc(F)c(F)cc3F)n2)C1 | 3.8 µM | 0.96 | > 2 h | > 2 h |  | Papp (Caco-2 [2]): 0.15 ×10⁻⁶ cm/s; Papp (Caco-2 [3]): 28 ×10⁻⁶ cm/s |
| N[C@@H](CC(=O)N1CCC[C@H]1c1nc(C2CC2)no1)Cc1cc(F)c(F)cc1F | 3.8 µM | 1.61 | > 2 h | 1.18 h |  | Papp A→B [6]: 21 ×10⁻⁶ cm/s; Papp B→A [7]: 52 ×10⁻⁶ cm/s |
| N[C@@H](CC(=O)N1CCC[C@H]1c1nc(N2CCOCC2)no1)Cc1cc(F)c(F)cc1F | 5.6 µM |  |  |  | > 100 µM |  |
| N[C@@H](CC(=O)N1CCC[C@H]1c1noc(C2(C(F)(F)F)CC2)n1)Cc1cc(F)c(F)cc1F | 10 µM | 2.16 | > 2 h | 1 h |  | Papp A→B [6]: 23 ×10⁻⁶ cm/s; Papp B→A [7]: 49 ×10⁻⁶ cm/s; half-life [8]: 2.3 h; clearance [9]: 115 mL/min/kg; Vd [10]: 17.5 L/kg; bioavailability [11]: 43% |
| N[C@@H](CC(=O)N1CCC[C@H]1c1noc(C2(O)CC2)n1)Cc1cc(F)c(F)cc1F | 23 µM |  |  |  |  |  |
| CC(=O)N1CC(c2noc([C@@H]3CCCN3C(=O)C[C@H](N)Cc3cc(F)c(F)cc3F)n2)C1 | 17 µM |  |  |  |  |  |
| N[C@@H](CC(=O)N1CCC[C@H]1c1nc(C2(C(F)(F)F)CC2)no1)Cc1cc(F)c(F)cc1F | 2.8 µM |  |  |  |  |  |
| N[C@@H](CC(=O)N1CCC[C@H]1c1nc(-c2cnccn2)no1)Cc1cc(F)c(F)cc1F | 2.3 µM |  |  |  | > 100 µM |  |
| CC(C)(C)c1noc([C@@H]2CCCN2C(=O)C[C@H](N)Cc2cc(F)c(F)cc2F)n1 | 7 µM | 1.85 | 1.33 h | 0.133 h | 39 µM | Papp A→B [6]: 20 ×10⁻⁶ cm/s; Papp B→A [7]: 49 ×10⁻⁶ cm/s; half-life [8]: 1.6 h; clearance [9]: 120 mL/min/kg; Vd [10]: 20.5 L/kg; bioavailability [11]: 3% |
| N[C@@H](CC(=O)N1CCC[C@H]1c1nc(N2CCCC2)no1)Cc1cc(F)c(F)cc1F | 3.2 µM |  |  |  | > 100 µM |  |
| CC(C)(C)c1nc([C@@H]2CCCN2C(=O)C[C@H](N)Cc2cc(F)c(F)cc2F)no1 | 36 µM |  |  |  | > 100 µM |  |
| N[C@@H](CC(=O)N1CCC[C@H]1c1nc(-c2ccccn2)no1)Cc1cc(F)c(F)cc1F | 0.886 µM |  |  |  |  |  |
| N[C@@H](CC(=O)N1CCC[C@H]1c1noc(C2CC2)n1)Cc1cc(F)c(F)cc1F | 11 µM |  |  |  | > 100 µM |  |
| CC(C)(F)c1nc([C@@H]2CCCN2C(=O)C[C@H](N)Cc2cc(F)c(F)cc2F)no1 | 16 µM | 1.46 | > 2 h | 1.7 h | > 100 µM | Papp A→B [6]: 14 ×10⁻⁶ cm/s; Papp B→A [7]: 62 ×10⁻⁶ cm/s; half-life [8]: 1 h; clearance [9]: 31.7 mL/min/kg; Vd [10]: 2.9 L/kg; bioavailability [11]: 100%; Activity (Mus musculus): Active; inhibition [12]: 70%; inhibition [13]: 56% |
| CC1(c2nc([C@@H]3CCCN3C(=O)C[C@H](N)Cc3cc(F)c(F)cc3F)no2)COC1 | 38 µM |  |  |  | > 100 µM |  |
| N[C@@H](CC(=O)N1CCC[C@H]1c1nc(-c2ncc(F)cc2F)no1)Cc1cc(F)c(F)cc1F | 2 µM | 1.32 | > 2 h | > 2 h | > 100 µM | Papp A→B [6]: 3 ×10⁻⁶ cm/s; Papp B→A [7]: 73 ×10⁻⁶ cm/s; half-life [8]: 2.4 h; clearance [9]: 100 mL/min/kg; Vd [10]: 17.7 L/kg; bioavailability [11]: 56%; Activity (Mus musculus): Active; inhibition [12]: 79%; inhibition [13]: 64% |
| N[C@@H](CC(=O)N1CCC[C@H]1c1nc(-c2ncccn2)no1)Cc1cc(F)c(F)cc1F | 2.2 µM |  |  |  |  |  |
| N[C@@H](CC(=O)N1CCC[C@H]1c1nc(CC2CC2)no1)Cc1cc(F)c(F)cc1F | 4 µM |  |  |  | > 100 µM |  |
